Results as given in patent publication US10336701B2, “Pyridin-2-one derivatives of formula (II) useful as EP3 receptor antagonists” (Janssen Pharmaceutica NV, priority 2017, dated 2019).

Key:
Sprague Dawley rats = assay: IV infused EP3 antagonists on circulating insulin and glucose in the sulprostone infusion IVGTT model; assay type: in vivo, rat; settings: SD rats, IV bolus plus infusion at 7×Ki and 10×Ki (targeted)
Excerpt: Biological Example 3—IV Infused EP3 Antagonists on Circulating Insulin and Glucose in the Sulprostone Infusion IVGTT Model
Jugular vein and carotid artery cannulated male Sprague Dawley rats (˜250 g, available from Charles River) were housed one rat per suspended cage in a temperature-controlled room with 12-hour light/dark cycle. The rats were allowed ad libitum access to water and maintained on a regular diet. Animals were acclimated for minimum 5 days prior to the start of the experiment. Experimental procedures were carried out in accordance with institutional standards for animal care and were approved by the institute's animal care and use committee.
A blood sample for insulin and blood chemistry was collected at 20 min (t=−20) prior to the start of dosing with sulprostone and/or test compound (EP3 antagonist). […]
Blood samples from all animals were collected into Heparin treated tubes. Background was measured via a glucometer at the 0 and 2 min time points to ensure that the animal received the glucose bolus. Plasma insulin was measured via a Meso Scale Discovery metabolic assay (available from Meso Scale). Plasma glucose, free fatty acid (FFA), triglycerides, cholesterol and ketones were measured on an OLYMPUS AU400E chemistry analyzer. Observations on animal health were recorded throughout the procedure. […]

EP3 receptor [1] = target: T1, EP3 receptor (Homo sapiens, UniProt P43115); assay: [3H]-PGE2 binding assay (EP3 competition binding); settings: read-out: [3H]-PGE2 Binding Ki
T1 construct: purchased Millipore HTS092M
T1 sequence (P43115 1-390): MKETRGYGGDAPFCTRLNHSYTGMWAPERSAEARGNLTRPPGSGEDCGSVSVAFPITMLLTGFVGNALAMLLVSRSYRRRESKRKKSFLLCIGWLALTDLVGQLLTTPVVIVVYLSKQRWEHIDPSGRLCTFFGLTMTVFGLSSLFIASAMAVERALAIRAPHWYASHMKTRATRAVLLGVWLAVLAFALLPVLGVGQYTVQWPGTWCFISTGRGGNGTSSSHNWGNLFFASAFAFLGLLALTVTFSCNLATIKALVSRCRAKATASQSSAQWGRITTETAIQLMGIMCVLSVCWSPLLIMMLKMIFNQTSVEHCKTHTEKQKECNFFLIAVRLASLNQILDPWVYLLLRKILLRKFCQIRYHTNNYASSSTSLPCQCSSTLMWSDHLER
Summary of the method: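 Scintillation-bead competition binding with EP3 membranes (2 μg/well), 2 nM [3H]-PGE2, 0.1% DMSO, in 50 mM Tris, 10 mM MgCl2, 1 mM EDTA, pH 7.4.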

EP3 receptor [2] = target: T1, EP3 receptor; assay: CHO cell cAMP assay (forskolin and sulprostone stimulated, HTRF); assay type: cell-based; settings: CHO cells; sulprostone 700 nM (EC80) and FSK 2 μM (EC70), 37° C. for 30 minutes; read-out: CHO_cAMP IC50

Row | SMILES | reversal of suppression of glucose stimulate insulin secretion (GSIS) by sulprostone (Sprague Dawley rats) | Ki (EP3 receptor [1]) [nM] | IC50 (EP3 receptor [2]) [nM]
1 | CC(C)C(/C=C1\OC(=O)NC1=O)c1ccc(-c2ccc3cccc(F)c3c2)[nH]c1=O (racemic) [Compound #62, (Z)-5-(2-(6-(8-fluoronaphthalen-2-yl)-2-oxo-1,2-dihydropyridin-3-yl)-3-methylbutylidene)oxazolidine-2,4-dione] | reverse suppression of glucose stimulate insulin secretion (GSIS) by sulprostone | – | –
2 | CC(C)C(O)(CC(N)=O)c1ccc(-c2ccc3cccc(F)c3c2)[nH]c1=O (stereo not drawn) [compound 255, 3-(6-(8-fluoronaphthalen-2-yl)-2-oxo-1,2-dihydropyridin-3-yl)-3-hydroxy-4-methylpentanamide] | – | 9 | 115
3 | CC(C)C1(c2ccc(-c3ccc4cccc(F)c4c3)[nH]c2=O)N=C(NC#N)NC1=O (stereo not drawn) [compound 236, N-(4-(6-(8-fluoronaphthalen-2-yl)-2-oxo-1,2-dihydropyridin-3-yl)-4-isopropyl-5-oxo-4,5-dihydro-1H-imidazol-2-yl)cyanamide] | – | 2 | 6
4 | CCn1ncc2c(F)cc(-c3ccc(C(/C=C4\CCNC4=O)(CC)CC)c(=O)[nH]3)cc21 [compound 16, 6-(1-ethyl-4-fluoro-indazol-6-yl)-3-[1-ethyl-1-[(E)-(2-oxopyrrolidin-3-ylidene)methyl]propyl]-1H-pyridin-2-one] | – | 6 | 17
5 | CCn1ncc2c(F)cc(-c3ccc(C4=CCN(S(=O)(=O)C(C)C)C4)c(=O)[nH]3)cc21 [compound 297, 6-(1-ethyl-4-fluoro-1H-indazol-6-yl)-3-(1-(isopropylsulfonyl)-2,5-dihydro-1H-pyrrol-3-yl)pyridin-2(1H)-one] | – | 8 | 194
6 | CC(C)C(C(=O)NC1CN(C)C1)c1ccc(-c2ccc3cccc(F)c3c2)[nH]c1=O (stereo not drawn) [compound 182, 2-(6-(8-fluoronaphthalen-2-yl)-2-oxo-1,2-dihydropyridin-3-yl)-3-methyl-N-(1-methylazetidin-3-yl)butanamide] | – | 41 | 638
7 | CC(C)C(Cc1ccc(-c2ccc3cccc(F)c3c2)[nH]c1=O)c1nnn[nH]1 (stereo not drawn) [compound 270, 6-(8-Fluoronaphthalen-2-yl)-3-(3-methyl-2-(1H-tetrazol-5-yl)butyl)pyridin-2(1H)-one] | – | 164 | 540
8 | CC(C)C(NC(=O)NCCN(C)C)c1ccc(-c2ccc3cccc(F)c3c2)[nH]c1=O (stereo not drawn) [compound 266, 1-(2-(dimethylamino)ethyl)-3-(1-(6-(8-fluoronaphthalen-2-yl)-2-oxo-1,2-dihydropyridin-3-yl)-2-methylpropyl)urea] | – | 28 | 736
9 | CC(C)C(CC(=O)Nc1nccs1)c1ccc(-c2ccc3cccc(F)c3c2)[nH]c1=O (stereo not drawn) [compound 254, 3-(6-(8-fluoronaphthalen-2-yl)-2-oxo-1,2-dihydropyridin-3-yl)-4-methyl-N-(thiazol-2-yl)pentanamide] | – | 344 | 2740
10 | CC(C)C(c1nnn[nH]1)c1ccc(-c2ccc3ccccc3c2)[nH]c1=O (stereo not drawn) [compound 61, 3-(2-Methyl-1-(1H-tetrazol-5-yl)propyl)-6-(naphthalen-2-yl)pyridin-2(1H)-one] | – | 43 | 376
11 | CC(C)C(NS(=O)(=O)C1CCCCC1)c1ccc(-c2ccc3cccc(F)c3c2)[nH]c1=O (stereo not drawn) [Compound #165, N-(1-(6-(8-fluoronaphthalen-2-yl)-2-oxo-1,2-dihydropyridin-3-yl)-2-methylpropyl)cyclohexanesulfonamide] | – | 31 | 250
12 | O=c1[nH]c(-c2ccc3ccccc3c2)ccc1C1CCNCC1 [compound 194, 6-(naphthalen-2-yl)-3-(piperidin-4-yl)pyridin-2(1H)-one] | – | > 10000 | > 20000
13 | CCN1C(=O)COc2c(F)cc(-c3ccc(C(CN4CCS(=O)(=O)CC4)C(C)C)c(=O)[nH]3)cc21 (stereo not drawn) [Compound #128, 4-{2-[6-(4-ethyl-8-fluoro-3-oxo-2H-1,4-benzoxazin-6-yl)-2-oxo-1H-pyridin-3-yl]-3-methylbutyl},4-thiomorpholine-1,1-dione] | – | 154 | 18000
14 | CCn1ncc2c(F)cc(-c3[nH]c(=O)c(C(/C=C4\OC(=O)NC4=O)C(C)C)cc3C)cc21 (stereo not drawn) [compound 111, (Z)-5-(2-(6-(1-ethyl-4-fluoro-1H-indazol-6-yl)-5-methyl-2-oxo-1,2-dihydropyridin-3-yl)-3-methylbutylidene)oxazolidine-2,4-dione] | – | 162 | 585
